± gives the standard deviation of the averaged measurements.
How the values were obtained:
Assay in all cases: level (log10 ratio to DMSO vehicle control); higher = higher biomarker level / cell amount than vehicle control
Settings in all cases: in DMSO
[1] = compound: FC(F)(F)C(F)(C(F)(F)F)C(F)(F)C(F)(F)CC1CO1 [3-(Perfluoro-3-methylbutyl)-1,2-propenoxide]
Procedure: (§1)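 BioMAP Diversity Plus panel of 12 human primary cell co-culture systems (3C, 4H, LPS, SAg, BT, BF4T, BE3C, CASM3C, HDF3CGF, KF3CT, MyoF, Mphg). Compounds were added 1 h before stimulation and left for 24 h (MyoF 48 h; BT 72 h for soluble read-outs or 6 d for IgG). Biomarkers were read by ELISA, cytotoxicity by SRB, PBMC viability and proliferation by Alamar Blue. Each well value was divided by the mean of 8 DMSO control wells on the same plate and log10 transformed; duplicate blinded samples were tested at 4 concentrations.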

Pentafluoropropionamide = compound: NC(=O)C(F)(F)C(F)(F)F [Pentafluoropropionamide]
Procedure: as §1

[2] = compound: O=C(O)C(F)(F)C(F)(F)C(F)(F)C(F)(F)C(F)(F)C(F)(F)C(F)(F)C(F)F [9-H-Perfluorononanoic acid]
Procedure: as §1

[3] = compound: O=C(O)C(F)(F)C(F)(F)C(F)(F)OC(F)(C(F)(F)F)C(F)(F)F [Perfluoro-4-isopropoxybutanoic acid]
Procedure: as §1

[4] = compound: O=C(O)C(F)(F)C(F)(F)OC(F)(F)F [Perfluoro-3-methoxypropanoic acid]
Procedure: as §1

[5] = compound: O=S(=O)(O)C(F)(F)C(F)(F)C(F)(F)C(F)(F)C(F)(F)C(F)(F)F [Perfluorohexanesulfonic acid]
Procedure: as §1

[6] = compound: OCCC(F)(F)C(F)(F)C(F)(F)C(F)(F)C(F)(F)C(F)(F)F [6:2 Fluorotelomer alcohol]
Procedure: as §1

| Test System | level (log10) ([1]; 6700 nM) | level (log10) ([1]; 20000 nM) | level (log10) (Pentafluoropropionamide; 6700 nM) | level (log10) (Pentafluoropropionamide; 20000 nM) | level (log10) (Pentafluoropropionamide; 60000 nM) | level (log10) ([2]; 6700 nM) | level (log10) ([2]; 20000 nM) | level (log10) ([2]; 60000 nM) | level (log10) ([3]; 6700 nM) | level (log10) ([3]; 20000 nM) | level (log10) ([3]; 60000 nM) | level (log10) ([4]; 6700 nM) | level (log10) ([4]; 20000 nM) | level (log10) ([4]; 60000 nM) | level (log10) ([5]; 6700 nM) | level (log10) ([5]; 20000 nM) | level (log10) ([5]; 60000 nM) | level (log10) ([6]; 6700 nM) | level (log10) ([6]; 20000 nM) |
| --- | --- | --- | --- | --- | --- | --- | --- | --- | --- | --- | --- | --- | --- | --- | --- | --- | --- | --- | --- |
| SAg:PBMC Cytotoxicity | 0.008 ± 0.0071 | 0.016 ± 0.023 | 0.0005 ± 0.052 | 0.026 ± 0.0042 | 0.0245 ± 0.012 | 0.007 ± 0.023 | 0.045 ± 0.0099 | 0.0765 ± 0.013 | 0.0225 ± 0.026 | 0.0245 ± 0.028 | 0.0425 ± 0.022 | 0.034 ± 0.014 | 0.016 ± 0.013 | -0.0115 ± 0.011 | -0.025 ± 0.0042 | -0.0175 ± 0.026 | 0.0085 ± 0.012 | 0.0025 ± 0.005 | 0.023 ± 0.028 |
| LPS:CD40 | -0.0195 ± 0.015 | -0.007 ± 0.034 | -0.0315 ± 0.047 | -0.04 ± 0.013 | -0.025 ± 0.02 | -0.027 ± 0.023 | -0.033 ± 0.016 | -0.0655 ± 0.021 | 0.012 ± 0.041 | -0.011 ± 0.018 | -0.0405 ± 0.023 | 0.0045 ± 0.013 | 0.0095 ± 0.015 | 0.0135 ± 0.039 | 0.004 ± 0.018 | 0.011 ± 0.023 | -0.0045 ± 0.054 | -0.0015 ± 0.03 | -0.0315 ± 0.015 |
| BF4T:IL-1alpha | -0.016 ± 0.024 | 0.0185 ± 0.013 | -0.0165 ± 0.0021 | -0.016 ± 0.021 | 0.0065 ± 0.021 | 0.0005 ± 0.00071 | -0.019 ± 0.0099 | 0.0055 ± 0.044 | -0.008 ± 0.018 | -0.0245 ± 0.015 | -0.012 ± 0.023 | -0.0055 ± 0.03 | -0.021 ± 0.0042 | 0.004 ± 0.045 | -0.0055 ± 0.005 | -0.025 ± 0.0042 | 0.0095 ± 0.00071 | -0.002 ± 0.0014 | -0.0125 ± 0.021 |
| 4H:CD87/uPAR | -0.005 ± 0.027 | 0.0075 ± 0.04 | 0.009 ± 0.02 | -0.0185 ± 0.00071 | -0.009 ± 0.0099 | 0.002 ± 0.037 | 0.027 ± 0.017 | 0.019 ± 0.013 | -0.004 ± 0.03 | -0.013 ± 0.0028 | -0.0075 ± 0.0035 | -0.031 ± 0.044 | -0.0165 ± 0.047 | -0.0045 ± 0.029 | -0.002 ± 0.023 | 0.0065 ± 0.013 | -0.0055 ± 0.022 | -0.002 ± 0.033 | 0.001 ± 0.033 |
| BE3C:IL-1alpha | 0.002 ± 0.025 | 0.023 ± 0.057 | 0.0095 ± 0.022 | 0.003 ± 0.014 | 0.0295 ± 0.0035 | 0.032 ± 0.0028 | 0.014 ± 0.028 | 0.026 ± 0.0028 | 0.0065 ± 0.026 | 0.016 ± 0.02 | 0.0325 ± 0.00071 | 0.0105 ± 0.015 | 0.0235 ± 0.005 | 0.0355 ± 0.026 | 0.0145 ± 0.042 | 0.02 ± 0.018 | 0.0545 ± 0.0021 | 0.019 ± 0.016 | 0.008 ± 0.0057 |
| BE3C:CXCL11/I-TAC | 0 ± 0.0057 | -0.0075 ± 0.0035 | -0.0065 ± 0.0092 | -0.0055 ± 0.018 | -0.006 ± 0.0071 | -0.01 ± 0.0085 | -0.009 ± 0.0085 | -0.036 ± 0.021 | -0.0095 ± 0.005 | 0.008 ± 0.0014 | 0.018 ± 0.0099 | -0.0125 ± 0.0035 | -0.0115 ± 0.0092 | 0.0045 ± 0.00071 | -0.004 ± 0.016 | 0.004 ± 0.011 | 0.0035 ± 0.016 | -0.017 ± 0.0028 | -0.022 ± 0.0057 |
| 4H:VEGFR2 | -0.001 ± 0.014 | 0.0245 ± 0.026 | 0.032 ± 0.014 | 0.034 ± 0.027 | 0.072 ± 0.031 | 0.0105 ± 0.037 | 0.001 ± 0.027 | 0.051 ± 0.0099 | -0.0575 ± 0.015 | -0.056 ± 0.037 | -0.0215 ± 0.088 | -0.085 ± 0.041 | -0.0895 ± 0.05 | -0.009 ± 0.093 | -0.021 ± 0.037 | -0.0125 ± 0.052 | 0.03 ± 0.038 | -0.058 ± 0.024 | -0.072 ± 0.078 |
